In patent US5279836A, “Topical use of calcitonin for the preparation of medications in senile idiopathic cataract and a pharmaeutical composition thereof” (Mediator S.R.L., priority 1991, dated 1994):
Positions of bridges follow the written chain, without caps; N, C: chain ends. Non-standard residues stand in square brackets, D forms with d. Residues, ends and D or L forms follow the SMILES beside them. Asu = N[C@@H](CCCCCC(=O)O)C(=O)O

Tests used:
[1] = test system: corneal epithelium; test: Systemic and local (corneal) tolerance after topical instillation of the collyrium; assay type: in vivo, rabbit; details: rabbits, topical collyrium 5 U.MRC; 2% fluorescein test
Description: After the Keratocentesis a new test of the corneal surface integrity was performed with instillation of 2% fluorescein and washing with physiological solution.

[2] = test system: sheep lens; details: sheep lens in vitro, incubation; cited from earlier work

Molecule	systemic phenomena of drug intolerance and local toxic phenomena (corneal epithelium) [1]	calcium levels in the lens [2]
CC(C)C[C@H](NC(=O)[C@H](CCCCN)NC(=O)CNC(=O)[C@H](CC(C)C)NC(=O)[C@@H](NC(=O)[C@@H]1CCCCCC(=O)N[C@@H](CO)C(=O)N[C@@H](CC(N)=O)C(=O)N[C@@H](CC(C)C)C(=O)N[C@@H](CO)C(=O)N[C@@H]([C@@H](C)O)C(=O)N1)C(C)C)C(=O)N[C@@H](CO)C(=O)N[C@@H](CCC(N)=O)C(=O)N[C@@H](CCC(=O)O)C(=O)N[C@@H](CC(C)C)C(=O)N[C@@H](Cc1c[nH]cn1)C(=O)N[C@@H](CCCCN)C(=O)N[C@@H](CC(C)C)C(=O)N[C@@H](CCC(N)=O)C(=O)N[C@H](C(=O)N[C@@H](Cc1ccc(O)cc1)C(=O)N1CCC[C@H]1C(=O)N[C@@H](CCCNC(=N)N)C(=O)N[C@H](C(=O)N[C@@H](CC(=O)O)C(=O)N[C@H](C(=O)NCC(=O)N[C@@H](C)C(=O)NCC(=O)N[C@H](C(=O)N1CCC[C@H]1C(N)=O)[C@@H](C)O)C(C)C)[C@@H](C)O)[C@@H](C)O [elcatonin] (SNLST[Asu]VLGKLSQELHKLQTYPRTDVGAGTP-NH2; lactam N-6)	No animal showed systemic phenomena of the drug intolerance nor local toxic phenomena	–
calcitonin	–	raises the calcium levels proportionally with the incubation times
